In assay [1] the test system is dLight1.3b. Put plainly: In vivo photometry of optogenetically-evoked DA release in PFC. The arrangement: species or system mouse. Conditions: DETQ 10 mg/kg i.p. As to the method: Fiber photometry combined with optogenetics was conducted using a RZ10X LUX-I/O Processor with integrated LEDs (Tucker-Davis Technologies) combined with a filter/mirror minicube set (FMC6_IE(400-410)_E1(467-497)_F1(507-554)_E2(566-586)_F2(600-680)_S) (Doric Lenses). […] Low-autofluorescence patch cords (400 µm/0.57 NA, Doric) were attached to the optic fibers (400 µm/0.66 NA, Doric) on the mouse’s head to collect fluorescence emissions. Signals were filtered through 500–540 nm GFP emission filters coupled to a photodetector on the RZ10X. […] Data were sampled at 1017.3 Hz. […] For optogenetic stimulation, a 635 nm LED was passed through the 580–680 nm minicube F2 port and reached the mouse through the same unique optic fiber; the LED was driven at 1 to 3 mW. To determine the ‘temporal window for stable imaging’ in the PFC using dLight1.3b recordings, DAT^IREScre mice expressing ChrimsonR in VTA DA axons and dLight1.3b in the PFC were injected i.p. with vehicle at 0 min, followed by DETQ (10 mg/kg) 25 min later. After each injection, PFC DA axons were optically (opto) activated across 5 trials (2 s, 20 Hz, 20-ms pulses) for the vehicle (20 min) and […] for DETQ (1h05 min) every 5 min. DA release was measured with fiber photometry. In another session, the same mice were injected with Veh, then DETQ (10 mg/kg) 20 min later, then cocaine (20 mg/kg) 25 min later, and the same optogenetic protocol was applied (2 s, 20 Hz, 20-ms pulses every 5 min). For optogenetic validation of AlloLite-ctr in the NAc, DAT^IREScre mice expressing ChrimsonR in VTA DA axons were injected i.p. with vehicle (Day 1) or DETQ (10 mg/kg) (Day 8) at 0 min, followed by cocaine (20 mg/kg) 20 min later. After each injection, NAc DA axons were optically (opto) activated across 3 trials (2 s, 20 Hz, 20-ms pulses) every 5 min and DA released measured with fiber photometry. […] After each injection, NAc DA axons were optically (opto) inhibited (10 s, continuous trials) every 3 min (8 trials/condition) and DA released measured with fiber photometry. […] DA release was measured with fiber photometry.
For long-term recordings during optogenetic stimulation or chemogenetic inhibition linear fit was calculated across the entire recording or across the vehicle epoch; for event-related experiments fit was performed on fluorescent data obtained in the −60 to +60 s around opto events or −5 to −1 s around behavioral events. […] DA event-related responses were quantified by computing the value at the transient’s peak value and the AUC in the 0 to 10 s or 0 to 60 s period post-event onset. […] The maximal peak value of Veh-normalized ΔF/F0 after opto-onset was plotted over time and the plateau of maximal response was determined by averaging peak opto responses 5, 10, 15 and 20 min post-DETQ. […]

Assay [2] concerns dLight1.3b. In words: Multi-fiber photometry of dLight1.3b across brain regions. It is filed as in vivo, mouse. The conditions noted are these: mean ± SEM. The source says: We used a light emitting diode (LED, M470L5 Thorlabs) at the 470-nm central wavelength for excitation of dLight1.3b. To achieve stable continuous operation, LEDs were run at 80% of maximal output power corresponding to an excitation power of ~1 mW/mm^2 per fiber channel. LED light was collimated with the 16 mm condenser lens (ACL25416U-A, Thorlabs). A microscope objective (TL4x-SAP; Thorlabs) coupled excitation light into the respective array of 12-fibers (Sylex). A dichroic beamsplitter (F58-486 dual line, AHF) coupled the excitation light into the objective (TL4x-SAP, Thorlabs) and transmitted the fluorescence in the dLight1.3b emission spectral window. To separate fluorescence signals from residuals of the excitation light and to minimize auto-fluorescence generated in a broader spectral range we used an emission filter (525/50 nm, F37-516, AHF, for dLight1.3b). To image the end face of the fiber array onto the camera we used a 100-mm focal tube lens (TTL100-A, Thorlabs). […]
Fluorescence signals were expressed as percentage ΔF/F0 relative to the fluorescence baseline. The fluorescence baseline was defined as the minimal level of the signal after subtracting the auto-fluorescence baseline, that is the level of fluorescence estimated prior to the mouse connection. Because in our experiment we wanted to estimate the slow DETQ decay times, we fitted the second-order polynomial trend to the recorded fluorescence signals. […] In all measured traces we visually verified the quality of fit. […] To analyse the ΔF/F0 temporal dynamics at multiple temporal scales separately, we decomposed the fluorescence traces with the wavelet transform (cwt function, MATLAB). We separately analysed measurement traces (30 min before and 30 min after the injection). […] After we compared across independent channels and mice contribution of various temporal scales (in the range of 1−30 seconds) to the recorded ΔF/F0. […] To compare the temporal scales recorded before and after the DETQ injection, during the same session, we used a non-parametric Wilcoxon signed-rank test.

In the case of `C[C@H]1c2cccc(C(C)(C)O)c2C[C@H](CO)N1C(=O)Cc1c(Cl)cccc1Cl` [DETQ, 2-(2,6-dichlorophenyl)-1-((1S,3R)-3-(hydroxymethyl)-5-(2-hydroxypropan-2-yl)-1-methyl-3,4-dihydroisoquinolin-2(1H)-yl)ethan-1-one], in the assay on dLight1.3b [1], the “duration of stable increase in DA sensitivity” value was determined as 31 min; the “opto-evoked DA signal amplitude” value is “clear and significant increase”; the “opto-evoked DA signal decay time” value is “clear and significant increase”. In addition, the “peak ΔF/F0 fluorescence” value in the assay on dLight1.3b [2] (CPu) is recorded as 28.3 ± 6.27%. Further, the “peak ΔF/F0 fluorescence” value in the assay on dLight1.3b [2] (NAc) came out at 22.3 ± 6.11%. Also, the “peak ΔF/F0 fluorescence” value with dLight1.3b [2] (PFC) is reported as 6.8 ± 2.39%.

The record behind these values is PMC11219860, “A chemogenetic approach for dopamine imaging with tunable sensitivity” (Nature Communications, 2024).
